Measurements as given in ChEMBL document CHEMBL1153257, “Diphenylpyrazolidinone and benzodiazepine cholecystokinin antagonists: A case of convergent evolution in medicinal chemistry” (Bioorg Med Chem Lett, 1993).

How the values were obtained:
[1] = target: T1, Gastrin/cholecystokinin type B receptor (Mus musculus, UniProt P56481); assay: The compound was tested for its activity to inhibit the binding of [125I]CCK-8 to Cholecystokinin type B receptor in mouse brain at a pH of 6.5; type: tissue-based
T1 sequence (P56481 whole entry): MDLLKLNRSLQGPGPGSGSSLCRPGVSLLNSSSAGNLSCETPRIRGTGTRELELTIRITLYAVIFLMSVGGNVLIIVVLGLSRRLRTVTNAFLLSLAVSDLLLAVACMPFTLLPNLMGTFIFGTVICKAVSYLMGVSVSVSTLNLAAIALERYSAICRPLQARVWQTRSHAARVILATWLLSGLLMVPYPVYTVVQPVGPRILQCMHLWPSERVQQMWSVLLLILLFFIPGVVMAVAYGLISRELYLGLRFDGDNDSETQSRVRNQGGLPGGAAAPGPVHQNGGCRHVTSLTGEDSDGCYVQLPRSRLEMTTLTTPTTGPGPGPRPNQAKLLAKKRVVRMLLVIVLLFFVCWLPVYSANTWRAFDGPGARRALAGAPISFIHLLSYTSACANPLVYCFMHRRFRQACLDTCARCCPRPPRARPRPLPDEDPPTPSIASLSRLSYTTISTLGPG

[2] = target: T2, Cholecystokinin receptor type A (Rattus norvegicus, UniProt P30551); assay: The compound was tested for its activity to inhibit the binding of [3H]-L-364,718 to Cholecystokinin type A receptor in rat pancreas
T2 sequence (P30551 whole entry): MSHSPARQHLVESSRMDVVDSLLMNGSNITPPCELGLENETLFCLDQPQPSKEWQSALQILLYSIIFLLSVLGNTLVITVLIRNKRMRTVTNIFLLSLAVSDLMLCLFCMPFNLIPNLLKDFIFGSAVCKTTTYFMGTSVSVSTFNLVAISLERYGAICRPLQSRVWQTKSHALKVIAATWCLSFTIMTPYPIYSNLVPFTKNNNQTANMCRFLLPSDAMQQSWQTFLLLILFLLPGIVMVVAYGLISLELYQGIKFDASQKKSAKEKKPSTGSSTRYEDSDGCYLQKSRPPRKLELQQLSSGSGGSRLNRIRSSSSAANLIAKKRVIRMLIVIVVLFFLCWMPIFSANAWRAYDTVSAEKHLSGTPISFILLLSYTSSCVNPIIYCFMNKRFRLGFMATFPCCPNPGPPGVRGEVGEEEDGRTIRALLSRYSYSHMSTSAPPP

[3] = target: T2, Cholecystokinin receptor type A; assay: The compound was tested for its activity to inhibit the binding of [125I]CCK-8 to Cholecystokinin type A receptor in rat pancreas
[4] = target: T1, Gastrin/cholecystokinin type B receptor; assay: The compound was tested for its activity to inhibit the binding of [125I]CCK-8 to Cholecystokinin type B receptor in mouse brain at a pH of 7.4; type: tissue-based

Row | SMILES | IC50 [1] [µM] | IC50 [2] [µM] | IC50 [3] [µM] | IC50 [4] [µM]
1 | O=C1NN(C(=O)Nc2ccc(Br)cc2)[C@H](c2ccccc2)[C@H]1c1ccccc1 | 0.37 | 6.4 | – | –
2 | CN1C(=O)[C@@H](NC(=O)c2ccc(Cl)cc2)N=C(c2ccccc2)c2ccccc21 | – | – | 0.00039 | –
3 | O=C1NN(C(=S)Nc2ccc(Cl)c(C(F)(F)F)c2)[C@@H](c2ccccc2)[C@@H]1c1ccccc1 | – | 0.81 | – | 0.55
4 | CN1C(=O)[C@H](NC(=O)c2ccc(Cl)cc2)N=C(c2ccccc2)c2ccccc21 | – | – | 0.0029 | –
5 | O=C1NN(C(=O)Nc2ccc(Br)cc2)[C@@H](c2ccccc2)[C@@H]1c1ccccc1 | 0.019 | 20.5 | – | –
6 | O=C1NN(C(=O)Nc2ccc(Br)cc2)C(c2ccccc2)C1c1ccccc1 (centres undefined) | 0.031 | 11.6 | – | –
7 | O=C1NN(C(=S)Nc2ccc(Cl)c(C(F)(F)F)c2)C(c2ccccc2)C1c1ccccc1 (centres undefined) | – | 0.042 | – | 0.88
8 | O=C1NN(C(=S)Nc2ccc(Cl)c(C(F)(F)F)c2)[C@H](c2ccccc2)[C@H]1c1ccccc1 | – | 0.017 | – | 1.9
